Assay results: patent US8835643B2, “Molecules, compositions, and methods for light absorption” (Empire Technology Development LLC, priority 2012, dated 2014)

Legend:
[1] = Critical wavelength method, evaluation as UVA protector; assay type: physicochemical
Description: The term “critical wavelength method” denotes a method of measuring of the breadth of UVA protection using the “critical wavelength”. To obtain this value, the absorbance of the molecule or material is integrated (summed) from 290 nm across the UV wavelengths until the sum reaches 90% of the total absorbance of the sunscreen in the UV region of 290-400 nm. The wavelength where the summed absorbance reaches 90% of the total absorbance is the “critical wavelength”. The critical wavelength can be defined by the following equation: […]
The critical wavelength method was then employed for evaluation of the molecule CDBA as a UVA protector. The results are shown in FIGS. 5A-5C, which are graphs depicting the data using the Critical Wavelength method to evaluate CDBA as a UVA protector. […] Its 90% value was 124.030. […] Given this, the λc was determined to be between 389-390 nm. Furthermore, the results can be summarized as follows: • After 6 minutes of irradiation of UVA radiation (356 nm or 357 nm), 100% of the composition was isomeric. • After 8 minutes of irradiation of visible light radiation (442 nm or 443 nm), 99% of the molecules were isomeric. • After 3 hours of daylight irradiation, more than 90% of the molecules were isomeric, trans.

[2] = Molar absorptivity in CHCl3 (UV-Vis spectrophotometer); assay type: physicochemical; details: for κ (molar absorptivity): CHCl3; for λmax (λCHCl3): in CHCl3
Experimental: The tests included observing the UVA-absorbing condition before and after light exposure and noting the molar absorption coefficient. […] The ultraviolet spectra of CHCl3 were measured using an UV-Vis spectrophotometer (U3010, Hitachi, Japan). All experiments were carried out at room temperature unless otherwise stated.

[3] = Photoisomerization tests under UV, visible and natural light; assay type: physicochemical; details: for time of UV light irradiation to convert trans into cis form / time of visible light irradiation to reach the photostationary state of trans form: 400 W Hg lamp; for time of UV light irradiation to convert trans into cis form: 275-400 nm filter, room temperature; for time of visible light irradiation to reach the photostationary state of trans form: filter >400 nm; for time of natural light irradiation to reach the photostationary state of trans form: fluorescent lamps, about 500 lx
Experimental: Photoisomerization tests were carried out on compounds PyB (Formula XIV) and iQB (Formula XV), which were synthesized and characterized by MS, IR, ^1H NMR spectra.
The tests included observing the UVA-absorbing condition before and after light exposure and noting the molar absorption coefficient. The test also included determining the photo isomerization conditions under illumination of UVA, visible light and daylight. The compounds were irradiated with a 400 W high-pressure Hg lamp (LCE-9, Zhengzhou, China). A bandpass filter (λT=275˜400 nm) was used for UV light and a bandpass filter (λT>400 nm) was used for visible light. The light distance was 20 cm. For natural light irradiation, samples were irradiated with fluorescent lamps (21 W×2, luminous intensity about 500 lx), and the light distance was 120 cm. The ultraviolet spectra of CHCl3 were measured using an UV-Vis spectrophotometer (U3010, Hitachi, Japan). All experiments were carried out at room temperature unless otherwise stated.
It was estimated from the spectral change that trans-PyB and iQB were converted into the cis-PyB or iQB after 6 or 8 min (respectively) of UV light irradiation (FIGS. 3A and 4A); it took 8 min of visible light irradiation to reach the photostationary state of trans-PyB or iQB (FIGS. 3B and 4B) and 3.0 h of natural light irradiation to reach the photostationary state of trans-PyB or iQB (FIGS. 3C and 4C).

Experimental for back of the rats: Phototoxicity of various azo-compounds was examined.
The UV source for the in vivo testing involved a 400 W high-pressure mercury lamp (LCE-9, Zhengzhou, China) with a filter transmitting the wavelength between 320-380 nm. Four test sites (4 cm^2) were selected on the back of the rats. The sites were located between the breast and scapulae and lateral to the midline. The test product was applied at the amount of 20 ul/cm^2 (0.06 mg CDBA) and spread uniformly over one test site using a finger cot. The product was allowed to dry for 15 min before starting the UV exposure. On each test site, four squares (1 cm×1 cm) were defined, on an unprotected skin area of the rat dorsal and on a sunscreen-protected area. The skin was kept at a distance of 15 cm from the light source and the time of illumination was 5 hours on the test sites.

Row | SMILES | κ (molar absorptivity) ([2]; at 442 nm) [L/mol/cm] | κ (molar absorptivity) ([2]; at λmax) [L/mol/cm] | A (absorbance) ([2]; at λmax, CHCl3, C 0.01 mg/mL) | λmax (λCHCl3) [2] | time of UV light irradiation to convert trans into cis form [3] [min] | time of visible light irradiation to reach the photostationary state of trans form [3] [min] | time of natural light irradiation to reach the photostationary state of trans form [3] [h] | other results
1 | CCN(CC)CCCCOc1ccc(N=Nc2ccc(C(=O)OC3CCC4(C)C(=CCC5C4CCC4(C)C(C(C)CCCC(C)C)CCC54)C3)cc2)cc1 (centres unmarked) [CDBA, 4-cholesterocarbonyl-4′-(N,N-diethylaminebutyloxyl)azobenzene] | 3174 | 24726 | 0.335 | 357 (λmax) nm |  |  |  | integrated area ([1]; 290-389 (FIG. 5C)): 123.707; integrated area ([1]; 290-390 (FIG. 5B)): 125.025; 90% value of integrated area ([1]; 290 nm to 400 nm (FIG. 5A)): 124.030; integrated area ([1]; 290 nm to 400 nm (FIG. 5A)): 137.811; critical wavelength λc ([1]; wavelength where summed absorbance from 290 nm reaches 90% of the 290-400 nm total): 389-390 nm; A (absorbance) ([2]; at 442 nm, CHCl3, C 0.01 mg/mL): 0.043; protection of skin from UV irradiation (back of the rats; rat back, in liposome, 20 ul/cm2 (0.06 mg CDBA), 320-380 nm for 5 h, seen three days after): effectively protected skin from UV irradiation; adverse effect on skin (back of the rats; rat, in vivo): no adverse effect including allergy
2 | CC(C)CCCC(C)C1CCC2C3CC=C4CC(OC(=O)c5ccc(N=Nc6ccc(OCCCC[n+]7ccccc7)cc6)cc5)CCC4(C)C3CCC12C.[Br-] (centres unmarked) [PyB] | 2227 | 14464 |  | 356 (λmax) nm | 6 | 8 | 3.0 | A (absorbance) ([2]; at 442 nm, CHCl3, C 0.03 mg/mL): 0.081; A (absorbance) ([2]; at λmax, CHCl3, C 0.03 mg/mL): 0.526
3 | CC(C)CCCC(C)C1CCC2C3CC=C4CC(OC(=O)c5ccc(N=Nc6ccc(OCCCC[n+]7ccc8ccccc8c7)cc6)cc5)CCC4(C)C3CCC12C.[Br-] (centres unmarked) [iQB] |  | 21176 | 0.242 | 357 (λmax) nm | 8 | 8 | 3.0 | 
4 | COc1ccc(C(=O)CC(=O)c2ccc(C(C)(C)C)cc2)cc1 [avobenzone, reference compound] |  | 23870 | 0.770 | 358 (λmax) nm |  |  |  | κ (molar absorptivity) ([2]; at 320 nm): 10354 L/mol/cm; A (absorbance) ([2]; at 320 nm, CHCl3, C 0.01 mg/mL): 0.334; κ (molar absorptivity) ([2]; at 360 nm): 23715 L/mol/cm; A (absorbance) ([2]; at 360 nm, CHCl3, C 0.01 mg/mL): 0.765; κ (molar absorptivity) ([2]; at 400 nm): 2294 L/mol/cm; A (absorbance) ([2]; at 400 nm, CHCl3, C 0.01 mg/mL): 0.074
